Test system: C666-1 cells
Experiment: C666-1 cell viability single concentration (50 μM) inhibition rate (Resazurin)
Type: cell-based
Details: 50 μM compound, 72 hours, C666-1 cells
In short: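 EBV-positive C666-1 cells (5×10^3/well), pre-cultured 24 h, were exposed to compound at 50 μmol/L final for 72 h at 37° C, 5% CO2, in duplicate. Viability by resazurin (3 h, ex 560/em 590 nm); inhibition rate computed relative to DMSO control and medium-only blank.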

SMILES | C666-1 cell viability single concentration (50 μM) inhibition rate, Ratio* (Inh %)
COC(=O)c1cccc(C#CN(Cc2ccc(F)cc2)S(=O)(=O)c2ccc(C)cc2)c1-n1cccc1 [Example 344] | + (*Inh %: <10% +)

Same assay, conditions: Homo sapiens, C6661, 72 h, 50 μM compound, 72 hours, C666-1 cells; read-out: C666-1 cell viability single concentration (50 μM) inhibition rate, Ratio* (Inh %)

SMILES | inhibition at 50 µM
COC(=O)c1cccc(C#CN(CC2CCN(C)CC2)S(=O)(=O)c2ccc(C)cc2)c1-n1cccc1 [Example 318, Methyl 3-(((4-methyl-N-((1-methylpiperidin-4-yl)methyl)phenyl)sulfonamido)ethynyl)-2-(1H-pyrrol-1-yl)benzoate] | > 50%
COC(=O)c1cccc(C#CN(Cc2ccccc2)S(=O)(=O)c2csc3ccccc23)c1-n1cccc1 [Example 320, Methyl 3-((N-benzylbenzo[b]thiophen-3-sulfonamido)ethynyl)-2-(1H-pyrrol-1-yl)benzoate] | < 10%
COC(=O)c1cccc(C#CN(Cc2ccccc2)S(=O)(=O)c2cccs2)c1-n1cccc1 [Example 322, Methyl 3-((N-benzylthiophen-2-sulfonamido)ethynyl)-2-(1H-pyrrol-1-yl)benzoate] | 10 to 30%
COC(=O)c1cccc(C#CN(Cc2ccccc2F)S(=O)(=O)c2cccs2)c1-n1cccc1 [Example 324, Methyl 3-((N-(2-fluorobenzyl)thiophen-2-sulfonamido)ethynyl)-2-(1H-pyrrol-1-yl)benzoate] | 10 to 30%
COC(=O)c1cccc(C#CN(Cc2ccc(F)cc2)S(=O)(=O)c2cccs2)c1-n1cccc1 [Example 326, Methyl 3-((N-(4-fluorobenzyl)thiophen-2-sulfonamido)ethynyl)-2-(1H-pyrrol-1-yl)benzoate] | 30 to 50%
COC(=O)c1cccc(C#CN(Cc2cccs2)S(=O)(=O)c2ccc(C)cc2)c1-n1cccc1 [Example 328, Methyl 3-(((4-methyl-N-(thiophen-2-yl-methyl)phenyl)sulfonamido)ethynyl)-2-(1H-pyrrol-1-yl)benzoate] | 10 to 30%
COC(=O)c1cccc(C#CN(Cc2ccccc2)S(=O)(=O)c2ccc3occc3c2)c1-n1cccc1 [Example 330, Methyl 3-((N-benzylbenzofuran-5-sulfonamido)ethynyl)-2-(1H-pyrrol-1-yl)benzoate] | > 50%
COC(=O)c1cccc(C#CN(Cc2ccc(CO)cc2)S(=O)(=O)c2ccc(C)cc2)c1-n1cccc1 [Example 332, Methyl 3-(((N-(4-(hydroxymethyl)benzyl)-4-methylphenyl)sulfonamido)ethynyl)-2-(1H-pyrrol-1-yl)benzoate] | > 50%
COC(=O)c1cccc(C#CN(Cc2ccc3c(ccn3C)c2)S(=O)(=O)c2csc3ccccc23)c1-n1cccc1 [Example 334, Methyl 3-((N-((1-methyl-1H-indol-5-yl)methyl)benzo[b]thiophen-3-sulfonamido)ethynyl)-2-(1H-pyrrol-1-yl)benzoate] | > 50%
COC(=O)c1cccc(C#CN(Cc2ccc(C(F)(F)F)cc2)S(=O)(=O)c2cccs2)c1-n1cccc1 [Example 336, Methyl 3-((N-(4-(trifluoromethyl)benzyl)thiophen-2-sulfonamido)ethynyl)-2-(1H-pyrrol-1-yl)benzoate] | < 10%
COC(=O)c1cccc(C#CN(Cc2ccc3c(ccn3C)c2)S(=O)(=O)c2ccc3occc3c2)c1-n1cccc1 [Example 338, Methyl 3-((N-((1-methyl-1H-indol-5-yl)methyl)benzofuran-5-sulfonamido)ethynyl)-2-(1H-pyrrol-1-yl)benzoate] | < 10%
COC(=O)c1cccc(C#CN(Cc2ccccc2)S(=O)(=O)c2ccccc2)c1-n1cccc1 [Example 340, Methyl 3-((N-benzyl-N-phenylsulfonamido)ethynyl)-2-(1H-pyrrol-1-yl)benzoate] | < 10%
COC(=O)c1cccc(C#CN(Cc2ccc(C)cc2)S(=O)(=O)c2ccc(C)cc2)c1-n1cccc1 [Example 342] | < 10%

Same assay, conditions: Homo sapiens, C6661, 72 h, read-out: C666-1 cell viability single concentration (50 μM) inhibition rate, Ratio* (Inh %)

SMILES | inhibition at 50 µM
Cc1ccc(S(=O)(=O)N(C#Cc2cccc(C(=O)O)c2-n2cccc2)CC2CCN(C)CC2)cc1 [Example 319, Lithium 3-(((4-methyl-N-((1-methylpiperidin-4-yl)methyl)phenyl)sulfonamido)ethynyl)-2-(1H-pyrrol-1-yl)benzoate] | > 50%
O=C(O)c1cccc(C#CN(Cc2ccccc2)S(=O)(=O)c2csc3ccccc23)c1-n1cccc1 [Example 321, Lithium 3-((N-benzylbenzo[b]thiophen-3-sulfonamido)ethynyl)-2-(1H-pyrrol-1-yl)benzoate] | < 10%
O=C(O)c1cccc(C#CN(Cc2ccccc2)S(=O)(=O)c2cccs2)c1-n1cccc1 [Example 323, Lithium 3-((N-benzylthiophen-2-sulfonamido)ethynyl)-2-(1H-pyrrol-1-yl)benzoate] | < 10%
O=C(O)c1cccc(C#CN(Cc2ccccc2F)S(=O)(=O)c2cccs2)c1-n1cccc1 [Example 325, Lithium 3-((N-(2-fluorobenzyl)thiophen-2-sulfonamido)ethynyl)-2-(1H-pyrrol-1-yl)benzoate] | 30 to 50%
O=C(O)c1cccc(C#CN(Cc2ccc(F)cc2)S(=O)(=O)c2cccs2)c1-n1cccc1 [Example 327, Lithium 3-((N-(4-fluorobenzyl)thiophen-2-sulfonamido)ethynyl)-2-(1H-pyrrol-1-yl)benzoate] | > 50%
Cc1ccc(S(=O)(=O)N(C#Cc2cccc(C(=O)O)c2-n2cccc2)Cc2cccs2)cc1 [Example 329, Lithium 3-(((4-methyl-N-(thiophen-2-yl-methyl)phenyl)sulfonamido)ethynyl)-2-(1H-pyrrol-1-yl)benzoate] | > 50%
O=C(O)c1cccc(C#CN(Cc2ccccc2)S(=O)(=O)c2ccc3occc3c2)c1-n1cccc1 [Example 331, Lithium 3-((N-benzylbenzofuran-5-sulfonamido)ethynyl)-2-(1H-pyrrol-1-yl)benzoate] | < 10%
Cc1ccc(S(=O)(=O)N(C#Cc2cccc(C(=O)O)c2-n2cccc2)Cc2ccc(CO)cc2)cc1 [Example 333, Lithium 3-(((N-(4-(hydroxymethyl)benzyl)-4-methylphenyl)sulfonamido)ethynyl)-2-(1H-pyrrol-1-yl)benzoate] | > 50%
Cn1ccc2cc(CN(C#Cc3cccc(C(=O)O)c3-n3cccc3)S(=O)(=O)c3csc4ccccc34)ccc21 [Example 335, Lithium 3-((N-((1-methyl-1H-indol-5-yl)methyl)benzo[b]thiophen-3-sulfonamido)ethynyl)-2-(1H-pyrrol-1-yl)benzoate] | < 10%
O=C(O)c1cccc(C#CN(Cc2ccc(C(F)(F)F)cc2)S(=O)(=O)c2cccs2)c1-n1cccc1 [Example 337, Lithium 3-((N-(4-(trifluoromethyl)benzyl)thiophen-2-sulfonamido)ethynyl)-2-(1H-pyrrol-1-yl)benzoate] | 10 to 30%
Cn1ccc2cc(CN(C#Cc3cccc(C(=O)O)c3-n3cccc3)S(=O)(=O)c3ccc4occc4c3)ccc21 [Example 339, Lithium 3-((N-((1-methyl-1H-indol-5-yl)methyl)benzofuran-5-sulfonamido)ethynyl)-2-(1H-pyrrol-1-yl)benzoate] | < 10%
O=C(O)c1cccc(C#CN(Cc2ccccc2)S(=O)(=O)c2ccccc2)c1-n1cccc1 [Example 341, 3-((N-benzyl-N-phenylsulfonamido)ethynyl)-2-(1H-pyrrol-1-yl)benzoic acid] | < 10%
Cc1ccc(CN(C#Cc2cccc(C(=O)O)c2-n2cccc2)S(=O)(=O)c2ccc(C)cc2)cc1 [Example 343] | < 10%
